Measurements as given in the NIST ThermoML archive (doi:10.1021/je401036f).
Numbers after ± are expanded uncertainties.

Test: xn = mol fraction of the nth substance listed
Details: 101 kPa, Liquid; for viscosity: Concentric cylinders viscometry; for mass density: Vibrating tube method

CC(O)CN (stereo not given) [1-amino-2-propanol] + CCCCO
Details | mass density [kg/m3] | viscosity [mPa·s]
288.15 K, x1 = 0.1 | 827.167 ± 0.26 | 4.019 ± 0.12
288.15 K, x1 = 0.2005 | 841.339 ± 0.3 | 4.952 ± 0.15
288.15 K, x1 = 0.3 | 855.625 ± 0.34 | 6.238 ± 0.19
288.15 K, x1 = 0.3999 | 870.246 ± 0.38 | 8.046 ± 0.25
288.15 K, x1 = 0.5 | 885.14 ± 0.43 | 10.48 ± 0.33
288.15 K, x1 = 0.6001 | 900.478 ± 0.49 | 13.85 ± 0.43
288.15 K, x1 = 0.7 | 916.099 ± 0.55 | 18.2 ± 0.57
288.15 K, x1 = 0.8 | 932.069 ± 0.62 | 24.34 ± 0.77
288.15 K, x1 = 0.8997 | 948.249 ± 0.7 | 32.26 ± 1
288.15 K, x1 = 1 | 964.544 ± 0.8 | 43.7 ± 1.4
293.15 K, x1 = 0.1 | 823.338 ± 0.26 | 3.444 ± 0.11
293.15 K, x1 = 0.2005 | 837.455 ± 0.3 | 4.218 ± 0.13
293.15 K, x1 = 0.3 | 851.736 ± 0.33 | 5.202 ± 0.16
293.15 K, x1 = 0.3999 | 866.053 ± 0.38 | 6.617 ± 0.2
293.15 K, x1 = 0.5 | 881.2 ± 0.43 | 8.455 ± 0.26
293.15 K, x1 = 0.6001 | 896.524 ± 0.48 | 10.88 ± 0.34
293.15 K, x1 = 0.7 | 912.152 ± 0.55 | 14.08 ± 0.44
293.15 K, x1 = 0.8 | 928.119 ± 0.62 | 18.34 ± 0.58
293.15 K, x1 = 0.8997 | 944.296 ± 0.7 | 23.93 ± 0.76
293.15 K, x1 = 1 | 960.598 ± 0.79 | 31.68 ± 1
298.15 K, x1 = 0.1 | 819.488 ± 0.26 | 2.989 ± 0.092
298.15 K, x1 = 0.2005 | 833.571 ± 0.3 | 3.62 ± 0.11
298.15 K, x1 = 0.3 | 847.825 ± 0.33 | 4.398 ± 0.14
298.15 K, x1 = 0.3999 | 862.123 ± 0.38 | 5.507 ± 0.17
298.15 K, x1 = 0.5 | 877.169 ± 0.43 | 6.858 ± 0.21
298.15 K, x1 = 0.6001 | 892.563 ± 0.48 | 8.782 ± 0.27
298.15 K, x1 = 0.7 | 908.181 ± 0.55 | 11.03 ± 0.35
298.15 K, x1 = 0.8 | 924.144 ± 0.62 | 14.18 ± 0.45
298.15 K, x1 = 0.8997 | 940.31 ± 0.7 | 18.16 ± 0.57
298.15 K, x1 = 1 | 956.618 ± 0.79 | 23.54 ± 0.75
303.15 K, x1 = 0.1 | 815.611 ± 0.26 | 2.615 ± 0.081
303.15 K, x1 = 0.2005 | 829.669 ± 0.3 | 3.129 ± 0.097
303.15 K, x1 = 0.3 | 843.892 ± 0.33 | 3.756 ± 0.12
303.15 K, x1 = 0.3999 | 858.167 ± 0.38 | 4.639 ± 0.14
303.15 K, x1 = 0.5 | 873.195 ± 0.42 | 5.721 ± 0.18
303.15 K, x1 = 0.6001 | 888.575 ± 0.48 | 7.156 ± 0.22
303.15 K, x1 = 0.7 | 904.186 ± 0.54 | 8.892 ± 0.28
303.15 K, x1 = 0.8 | 920.144 ± 0.61 | 11.17 ± 0.35
303.15 K, x1 = 0.8997 | 936.303 ± 0.69 | 14.06 ± 0.44
303.15 K, x1 = 1 | 952.612 ± 0.78 | 17.9 ± 0.57
308.15 K, x1 = 0.1 | 811.706 ± 0.26 | 2.298 ± 0.071
308.15 K, x1 = 0.2005 | 825.735 ± 0.3 | 2.726 ± 0.084
308.15 K, x1 = 0.3 | 839.932 ± 0.33 | 3.23 ± 0.1
308.15 K, x1 = 0.3999 | 854.42 ± 0.37 | 3.944 ± 0.12
308.15 K, x1 = 0.5 | 869.288 ± 0.42 | 4.788 ± 0.15
308.15 K, x1 = 0.6001 | 884.561 ± 0.48 | 5.904 ± 0.18
308.15 K, x1 = 0.7 | 900.162 ± 0.54 | 7.231 ± 0.23
308.15 K, x1 = 0.8 | 916.116 ± 0.61 | 8.949 ± 0.28
308.15 K, x1 = 0.8997 | 932.266 ± 0.69 | 11.1 ± 0.35
308.15 K, x1 = 1 | 948.577 ± 0.78 | 13.88 ± 0.44
313.15 K, x1 = 0.1 | 807.768 ± 0.26 | 2.03 ± 0.063
313.15 K, x1 = 0.2005 | 821.766 ± 0.3 | 2.389 ± 0.074
313.15 K, x1 = 0.3 | 835.94 ± 0.33 | 2.801 ± 0.087
313.15 K, x1 = 0.3999 | 850.406 ± 0.37 | 3.377 ± 0.11
313.15 K, x1 = 0.5 | 865.257 ± 0.42 | 4.049 ± 0.13
313.15 K, x1 = 0.6001 | 880.518 ± 0.48 | 4.929 ± 0.15
313.15 K, x1 = 0.7 | 896.106 ± 0.54 | 5.957 ± 0.19
313.15 K, x1 = 0.8 | 912.054 ± 0.61 | 7.272 ± 0.23
313.15 K, x1 = 0.8997 | 928.196 ± 0.69 | 8.9 ± 0.28
313.15 K, x1 = 1 | 944.515 ± 0.77 | 10.96 ± 0.35
318.15 K, x1 = 0.1 | 803.791 ± 0.26 | 1.801 ± 0.056
318.15 K, x1 = 0.2005 | 817.764 ± 0.29 | 2.104 ± 0.065
318.15 K, x1 = 0.3 | 831.911 ± 0.33 | 2.445 ± 0.076
318.15 K, x1 = 0.3999 | 846.355 ± 0.37 | 2.915 ± 0.091
318.15 K, x1 = 0.5 | 861.194 ± 0.42 | 3.454 ± 0.11
318.15 K, x1 = 0.6001 | 876.438 ± 0.47 | 4.159 ± 0.13
318.15 K, x1 = 0.7 | 892.017 ± 0.54 | 4.969 ± 0.16
318.15 K, x1 = 0.8 | 907.96 ± 0.6 | 5.989 ± 0.19
318.15 K, x1 = 0.8997 | 924.096 ± 0.68 | 7.238 ± 0.23
318.15 K, x1 = 1 | 940.423 ± 0.77 | 8.798 ± 0.28
323.15 K, x1 = 0.1 | 799.764 ± 0.26 | 1.606 ± 0.05
323.15 K, x1 = 0.2005 | 813.705 ± 0.29 | 1.865 ± 0.058
323.15 K, x1 = 0.3 | 827.834 ± 0.33 | 2.144 ± 0.067
323.15 K, x1 = 0.3999 | 842.264 ± 0.37 | 2.535 ± 0.079
323.15 K, x1 = 0.5 | 857.087 ± 0.42 | 2.973 ± 0.093
323.15 K, x1 = 0.6001 | 872.324 ± 0.47 | 3.541 ± 0.11
323.15 K, x1 = 0.7 | 887.889 ± 0.53 | 4.192 ± 0.13
323.15 K, x1 = 0.8 | 903.828 ± 0.6 | 4.994 ± 0.16
323.15 K, x1 = 0.8997 | 919.961 ± 0.68 | 5.96 ± 0.19
323.15 K, x1 = 1 | 936.293 ± 0.76 | 7.166 ± 0.23
328.15 K, x1 = 0.1 | 795.685 ± 0.27 | 1.436 ± 0.044
328.15 K, x1 = 0.2005 | 809.606 ± 0.29 | 1.662 ± 0.052
328.15 K, x1 = 0.3 | 823.708 ± 0.33 | 1.887 ± 0.059
328.15 K, x1 = 0.3999 | 838.127 ± 0.37 | 2.218 ± 0.069
328.15 K, x1 = 0.5 | 852.936 ± 0.42 | 2.579 ± 0.081
328.15 K, x1 = 0.6001 | 868.161 ± 0.47 | 3.047 ± 0.095
328.15 K, x1 = 0.7 | 883.72 ± 0.53 | 3.568 ± 0.11
328.15 K, x1 = 0.8 | 899.655 ± 0.6 | 4.211 ± 0.13
328.15 K, x1 = 0.8997 | 915.789 ± 0.67 | 4.976 ± 0.16
328.15 K, x1 = 1 | 932.13 ± 0.76 | 5.915 ± 0.19
333.15 K, x1 = 0.1 | 791.549 ± 0.27 | 1.302 ± 0.04
333.15 K, x1 = 0.2005 | 805.451 ± 0.29 | 1.499 ± 0.047
333.15 K, x1 = 0.3 | 819.532 ± 0.33 | 1.699 ± 0.053
333.15 K, x1 = 0.3999 | 833.936 ± 0.37 | 1.973 ± 0.061
333.15 K, x1 = 0.5 | 848.734 ± 0.41 | 2.286 ± 0.071
333.15 K, x1 = 0.6001 | 863.951 ± 0.47 | 2.663 ± 0.083
333.15 K, x1 = 0.7 | 879.505 ± 0.53 | 3.099 ± 0.097
333.15 K, x1 = 0.8 | 895.441 ± 0.59 | 3.618 ± 0.11
333.15 K, x1 = 0.8997 | 911.577 ± 0.67 | 4.225 ± 0.13
333.15 K, x1 = 1 | 927.93 ± 0.75 | 4.986 ± 0.16
